Consider four molecules from patent US20050074451A1, “Methods and compositions for treating rheumatoid arthritis” (Elan Pharmaceuticals, Inc., priority 2003, published 2005).

A word on the melting point: it is the temperature, or range, at which the solid turns liquid.

The test system of series [1] is Lewis rats with adjuvant induced arthritis. The experiment in a line: Adjuvant-induced arthritis (AIA) in Lewis rats: paw swelling, erythema, clinical and histological scores. It counts as in vivo, rat.
In the next series the test system is rat ClA model. The experiment in a line: Rat ClA model, paw swelling and erythema, disease severity. In kind it is in vivo. The following applies: antibody 3 mg/kg i.v., compounds 30, 10, 3 mg/kg b.i.d. The protocol:
Anti alpha-4 antibodies, and the compounds of Formulae W and Y were tested in the rat ClA model according to the methods shown in Table 14 below.
(§1) The results in FIG. 6 show the results for compounds. There were 8 rats per group in the efficacy study. Paw swelling and erythema were measured daily and the tarsal paws collected for histological analysis at the end of the study. Plasma which was heparinized was collected at 12 hours (i.e., the trough level) and at 4 horus after the last dose for compound measurement (FIG. 6).

For series [2] the following is noted: rat, in vivo, 3 mg/kg.
The nature of series [3]: Plasma/blood compound levels in AIA rats (PK, relative to receptor saturation). The following applies: 12 hours after dosing, all concentrations tested.
Series [4] can be described thus: Blood/plasma levels of compound in rat ClA model (relative to receptor saturation). It counts as in vivo. The conditions noted are these: at 12 hours, all concentrations tested. The method, then: as §1
For series [5], the system named is DBA/1 LacJ mice with collagen-induced arthritis. The series is described as follows: Murine collagen-induced arthritis (ClA) model, clinical scores. In kind it is in vivo, mouse. The conditions noted are these: therapeutic ClA model, 100 mg/kg b.i.d. (Table 12). The protocol:
A murine collagen-induced arthritis (ClA) model was used to examine the pharmacological effect of anti-alpha4-integrin antibodies prophylactically, semi-therapeutically and therapeutically. Dosing of the antibody was begun on day 20 for the prophylactic animals. […] The results seen with the treatment of the ClA mice is seen in FIG. 1.
Peripheral blood leucocytes (PBLs) from mice treated with anti-alpha4, anti-α4β7 and anti-VCAM1 antibodies were collected at 4, 12 and 24 hours after antibody dosing. Cells were stained with goat anti-rat antibodies to confirm antibodies in circulation.
(§2) 100 DBA/1 LacJ male mice, ages 6-8 weeks were obtained from Jackson Laboratories. The mice were immunized at Day 0 as follows: 100 μg bovine type II collagen (Chondrex) in Complete Freund's adjuvant (CFA, Sigma) were injected into the mice. At Day 21, another 100 μg bovine type II collagen (Chondrex) in Incomplete Freund's Adjuvant (IFA, Sigma) was injected into the mice. Treatment with the compound began when the animals had the disease (i.e., 100% therapeutic).
The mice are scored daily after the boost. […] Treatment continued for 3-weeks-of dosing. Dosing was every other day for the antibody group and control group.
DBA/1 LacJ mice, aged 8 weeks will be immunized with bovine collagen (100 μg/mice) in CFA and re-challenge on day 21 in IFA.

Series [6] can be described thus: Blood levels of compound in murine ClA model. It counts as in vivo. The conditions noted are these: male, DBA/1 LacJ, mouse, whole blood, 100 mg/kg b.i.d., 16 hours after dosing. The protocol:
The effect of the compound of Formula P was evaluated in a therapeutica ClA model.
as §2

For series [7], the system named is human lymphocyte binding to rat brain cells. The conditions noted are these: rat brain cells stimulated with tumor necrosis factor; cited from earlier work.
The next series has as its target VLA-4 (Homo sapiens, UniProt P13612). The conditions noted are these: cited from earlier work.

Molecule `Cc1ccc(S(=O)(=O)N2CCC[C@H]2C(=O)N[C@@H](Cc2ccc(OC(=O)N3CCN(CCO)CC3)cc2)C(=O)OC(C)(C)C)cc1` came in with a melting point of 158 to 160 °C.
As to `CC(C)OC(=O)[C@H](Cc1ccc(OC(=O)N2CCN(C)CC2)cc1)NC(=O)[C@H]1N(S(=O)(=O)c2cccnc2)CSC1(C)C` [Formula N, N-[N-(3-pyridinesulfonyl)-L-3,3-dimethyl-4-thiaprolyl]-O-[I-methylpiperazin-4-ylcarbonyl]-L-tyrosine isopropyl ester], the “clinical and histological scores” value in [1] (AIA animal model, 30 mg/kg b.i.d.) is “ameliorate clinical and histological scores”. The disease severity entry in [1] (AIA rats, 3 mg/kg) was “no effect on disease severity”; in the series on rat ClA model, “neither the compound of Formula N nor Y had any impact on disease severity”. For the same molecule, the “compound present in the blood relative to receptor saturation” value in [2] is recorded as “below receptor saturation”.
Turning to `CCN(CC)c1ncc(N(CC)S(=O)(=O)c2ccc(Cl)cc2)c(NC(Cc2ccc(OC(=O)N3CCCC3)cc2)C(=O)O)n1` (stereo not drawn) [Formula P], the disease entry in [1] (AIA rats, all concentrations tested (30, 10, 3 mg/kg b.i.d. p.o.)) is “ameliorate disease at all concentrations tested”. Besides, the “levels of the compound relative to receptor saturation” value in series [3] is reported as “above receptor saturation”. For the same molecule, the “blood levels of the compound relative to receptor saturation” value in [4] was “above receptor saturation”. In series [5], the disease progression entry is given as “no effect on disease progression”. The concentration at 16 h in series [6] was found to be 1000 ng/mL.

B1: mu MAb 21.6: mouse monoclonal antibody specific for the α4 subunit of VLA-4; donor immunoglobulin of the humanized antibodies (antibody, V domains shown)
VH: EVQLQQSGAELVKPGASVKLSCTASGFNIKDTYIHCVKQRPEQGLEWIGRIDPANGYTKYDPKFQGKATITADTSSNTAYLQLSSLTSEDTAVYFCAREGYYGNYGVYAMDYWGQGTSVTVSSAK
VL: DIQMTQSPSSLSASLGGKVTITCKTSQDINKYMAWYQHKPGKRPRLLIHYTSALQPGIPSRFSGSGSGRDYSFNISNLEPEDIATYYCLQYDNLWTFGGGTKLEIK
As to B1, the “human lymphocyte binding to tissue cultures of rat brain cells” value in series [7] is on record as “inhibit”. The “binding affinity for VLA-4” value with VLA-4 is “about 10^9 M^−1”.
